Entries after “also recorded” stand apart in the source; their conditions may differ.
What was measured:
[1] = tested on: Rat glioblastoma cell lines C6; test: Cell growth of glioblastoma cell line C6; type: cell-based; settings: cell growth rate from number of live cells
Experimental: (§1) Rat glioblastoma cell lines C6 (A) and human non-small cell lung cancer cell line H841 (B) were grown in the proper medium and treated with different concentration of drug candidate AG-1031 (P) and AG-1503 (#3). Cell growth rate was calculated based on the number of live cells as compared to concentration in M of selected small molecules of the invention (see FIGS. 6A and 6B).

[2] = biological target: PC4 protein (Homo sapiens, UniProt P53999); test: PC4-DNA binding interference; settings: for PC4 inhibition: high-throughput screen platform
Experimental: A number of small molecules were incubated with PC4 protein and DNA binding assessed.

[3] = tested on: human non-small cell lung cancer cell line H841; test: Cell growth of NSCLC cell lines; type: cell-based; settings: cell growth rate from number of live cells
Experimental: as §1

[4] = tested on: glioma (glioblastoma cell line C6); test: C6 glioma xenograft model, tumor growth, behaviour and memory; type: in vivo, rats; settings: for ability of new object recognition: rat, in vivo; for recovery of memory loss and loss of other activities: xenograft model of C6 cell line
[5] = tested on: A549 xenograft (NSCLC tumor); test: A549 xenograft mice, AG-1031 treatment after inoculation; type: in vivo; settings: 20-40 μg/mice IP every other day, 28 days, after tumor formation
Experimental: Mice were treated with AG-1031 (20-40 μg/mice) every other day via IP injection after A549 inoculate to the SHO mice treatment and followed for up to 28 days.
Tumor volume was measured during treatment of NSCLC cells with AG-1031 over 28 days.

[6] = tested on: A549 xenograft (NSCLC formation); test: A549 xenograft mice, AG-1031 pre-injection (vaccine); type: in vivo
Experimental: AG-1031 was injected into mice two weeks before injection of tumor cell (see FIG. 9).
Tumor volume was measured for 35 days after administration of AG-1031 to xenograft mice.
IP inject with AG-1031 40 μg/mice, once a week (×2) before A549 cells inoculate to the SHO mice. Assessment of AG-1031 effect on tumor growth in A549 xenograft mice.

Substance	inhibition of growth of glioma cell line C6 [1]	PC4 inhibition [2]	inhibition of growth of NSCLC cell lines [3]	ability of new object recognition [4]	open-field anxiety and activity ([4]; rats with glioma)	recovery of memory loss and loss of other activities [4]	growth of NSCLC tumor [5]	interference of PC4-DNA binding ([2]; small molecules incubated with PC4 protein, in vitro)	tumor volume ([6]; AG-1031 injected two weeks before tumor cells, control 302.9 mm^3)	tumor volumes ([6]; measured for 35 days after administration)	prevention of tumor formation ([6]; pre-injection of AG-1031 before tumor cells)	glioma growth ([4]; xenograft model from C6 cell line)
Coproporphyrin III tetramethyl ester [AG-1503]	inhibition of rat glioblastoma cell line C6; also recorded: specific inhibitory activity on growth of glioma cell line C6	strong PC4 inhibitor	inhibition of human non-small cell lung cancer cell line H841; also recorded: not significant inhibitory activity on growth of NSCLC cell lines	showed efficacy to improve ability of new object recognition	improvement of anxiety and activity	better activity for recovering memory loss and loss of other activities	–	–	–	–	–	–
9-methyl (I) and 13-methyl (II) trans-(+)-18-ethenyl-4,4a-dihydro-3,4-bis(methoxycarbonyl)4a,8,14,19-tetramethyl-23H, 25H-benzo[b]porphine-9,13-dipropanoate [AG-1031]	inhibition of rat glioblastoma cell line C6	strong PC4 inhibitor	inhibition of human non-small cell lung cancer cell line H841; also recorded: inhibited non-small cell lung cancer (NSCLC) cell growth	showed efficacy to improve ability of new object recognition	–	recovery of memory loss and other activity loss	inhibits growth of NSCLC tumor cells; also recorded: inhibiting tumor growth	significant interference of PC4-DNA binding; also recorded: specifically inhibits PC4 activity by blocking its double stranded DNA binding ability	69.0 mm^3	substantially reduces tumor volumes	prevents NSCLC formation in vivo; also recorded: effectively prevented tumor formation	significantly inhibited glioma growth
